Results reported in US9249378B2, “Aqueous cleaning compositions having enhanced properties” (Eastman Chemical Company, priority 2013, dated 2016).
Read-outs that look alike come from different tables or passages of the source.

Assay: Solvent vapor pressure at 20° C.
Text: The solvents used to formulate these compositions, along with a few select physical properties of each solvent, are summarized in Table 2, below.

Row | Compound | Solvent Vapor Pressure at 20° C. | Solvent Vapor Pressure at 20° C. (neat solvent, 20° C.)
1 | CC(C)COC(=O)CC(C)O (stereo not shown) [i-butyl 3-hydroxybutyrate] | 0.08 torr | –
2 | CC(O)CC(=O)OC(C)C (stereo not shown) [i-propyl 3-hydroxybutyrate, isopropyl 3-hydroxybutyrate] | 0.17 torr | –
3 | CCOCCOCCO [Diethylene Glycol Monoethyl Ether] | 0.12 torr | –
4 | dibasic ester | – | 0.20 torr
5 | OCc1ccccc1 [Benzyl Alcohol] | 0.076 torr | –
6 | CCCCOCCOCCO [Diethylene Glycol Monobutyl Ether] | – | 0.02 torr
7 | C=C(C)[C@H]1CC=C(C)CC1 [d-limonene] | – | 1.5 torr
8 | CCC(C)OC(=O)CC(C)O (stereo not shown) [2-butyl 3-hydroxybutyrate] | 0.098 torr | –
9 | CCCCOC(=O)CC(C)O (stereo not shown) [n-butyl 3-hydroxybutyrate] | 0.06 torr | –
10 | CCCCOCCO [Ethylene glycol monobutyl ether] | – | 0.60 torr
